Measurements taken from publication PMC9033217, “Synthesis, characterization and biological evaluation of dipicolylamine sulfonamide derivatized platinum complexes as potential anticancer agents” (RSC Advances, 2021).

Key:
[1] = tested on: human breast cancer cells (MCF-7); experiment: Antiproliferative activity / cytotoxicity by sulforhodamine B assay in MCF-7 cells; assay type: cell-based; settings: for IC50: MCF7, MCF-7 human breast cancer cells, 24 hours exposure, sulforhodamine B assay, triplicate
Procedure: (§1) The ligands and corresponding metal complexes were investigated for their cytotoxicity against MCF-7 (breast cancer) cells and MCF-10A (normal human breast) cells. Cells were cultured in 96-well culture plates and exposed to 12.5 μg ml^−1, 25 μg ml^−1, 50 μg ml^−1 and 100 μg ml^−1 concentrations of ligands and complexes for 24 hours and cytotoxicity was assessed by sulforhodamine B assay. All exposures were carried out in triplicate. Briefly, the cell supernatant was completely removed and washed with phosphate buffer solution. Trichloroacetic acid (50%, […]) was added on top of fetal bovine serum-free fresh medium (200 μl) to make final concentration of 10% trichloroacetic acid and was incubated at 4 °C for one hour prior to the SRB assay. The plates were then washed with five washing cycles with water and dried completely. An aliquot of 100 μl of 0.4% sulforhodamine B dissolved in 1% trichloroacetic acid, was added to each well, and was allowed to stain for 15 minutes. The plates were again washed with five washing cycles to remove unbound dye using 1% (vol/vol) acetic acid after removing the stain. The protein bound dye was solubilized with trisbase (10 mM, pH 7.5, 200 μl), after air drying. The plates were then shaken for 60 minutes to homogenize the dye solution. The absorbance was then measured at 540 nm using Synergy HTBioTek microplate reader. The percentage viability was calculated by the equation given below.1 [drawing 1]
(§2) Three ligands and three novel complexes were assayed for their antiproliferative activity in human breast cancer cells (MCF-7) and normal human breast cells (MCF-10A). In this study, the cell lines were exposed to synthesized compounds in a concentration gradient up to […] and the half maximal inhibitory concentration (IC50) was determined for each compound. Cytotoxicity was measured with sulforhodamine B assay.

[2] = tested on: normal human breast cells (MCF-10A); experiment: Antiproliferative activity / cytotoxicity by sulforhodamine B assay in MCF-10A cells; assay type: cell-based; settings: MCF-10A normal human breast cells, 24 hours exposure, triplicate
Procedure: as §1, §2

Structure (SMILES)	shape of cytotoxicity curve ([1]; Fig. S3, IC50 graphs against MCF-7)	IC50 [1] [µM]	IC50 [2] [µM]
O=S(=O)(c1cccc2ccccc12)N(Cc1ccccn1)Cc1ccccn1 [N(SO2(1-nap))dpa]	biphasic cytotoxicity curve	92 ± 0.06	1583 ± 0.04
O=S(=O)(c1ccc2ccccc2c1)N(Cc1ccccn1)Cc1ccccn1 [N(SO2(2-nap))dpa]		18.1 ± 0.1	581 ± 0.04
O=S(=O)(N1CCCCC1)N(Cc1ccccn1)Cc1ccccn1 [N(SO2pip)dpa]		21.2 ± 0.1	948.5 ± 0.04
